According to patent EP2601963B1, “N-ISOVALEROYL-L-GLUTAMYL-L-TRYPTOPHAN AS AN AGENT INHIBITING THE FORMATION OF ULCERS IN THE STOMACH AND THE DUODENUM” (Obshestvo S Ogranichennoj Otvetstvennostju "CytoNIR", priority 2010, dated 2015):

What was measured:
Assay type in all cases: in vivo, male Wistar rats
[1] = test system: Alanine aminotransferase (ALT); experiment: Indomethacin-induced ulcer model, therapeutic: alanine aminotransferase activity in blood serum; details: treatment 5 days after Indomethacin
Description: (§1) Alanine aminotransferase (ALT) and alkaline phosphatase (AP) activity in blood serum was determined with "Vital Development Corporation" kits.
(§2) 2 ml/kg of the ulcerogenic dose of indomethacin equal to 30 mg/kg was administered intraperitoneally. The treatment started 24 hrs. post indomethacin administration and continued for 5 days. The animals in the experimental groups received N-isovaleroyl-L-glutamyl-L-tryptophan or the comparator drug Sucralfate, and the control group received distilled water.

[2] = test system: superoxide dismutase (SODM); experiment: Water-immersion stress model: superoxide dismutase activity in blood serum
Description: (§3) Intensity of the free radical oxidation was evaluated by the malondialdehyde (MDA) accumulation in blood serum [R.A. Temirbulatov, Ye.I. Seleznev Method for Increasing the Intensity of Free Radical Oxidation in Lipid-Containing Blood Components and its Diagnostic Significance // Labor. Delo, 1981, # 4, p.p. 209 - 211]. The state of the antioxidant systems was evaluated by the superoxide dismutase (SODM) activity [S. Chevari , I. Chaba, Y. Sekei. The Role of Superoxide Dismutase in Cellular Oxidative Processes and Method of its Determination in Biological Materials // Labor. Delo, 1985, # 11, p.p. 678 - 681].

malondialdehyde (MDA) [3] = experiment: Indomethacin-induced ulcer model, therapeutic: malondialdehyde in blood serum; details: for MDA: treatment 5 days after Indomethacin
Description: as §3, §2

[4] = test system: superoxide dismutase (SODM); experiment: Indomethacin-induced ulcer model, preventive: superoxide dismutase activity in blood serum
Description: as §3
(§4) The efficacy of the course of preventive treatment with the claimed composition was evaluated 24 hrs. post indomethacin administration. The study was conducted as in Example 1.

malondialdehyde (MDA) [5] = experiment: Water-immersion stress model: malondialdehyde in blood serum
Description: as §3

[6] = test system: Alanine aminotransferase (ALT); experiment: Indomethacin-induced ulcer model, preventive: alanine aminotransferase activity in blood serum
Description: as §1, §4

[7] = Indomethacin-induced ulcer model, therapeutic: weight of organs; details: treatment 5 days after Indomethacin
Description: (§5) Intensity of changes caused by stressors in the internal organs of the animals was evaluated by the relative weight changes of the adrenal glands, thymus, and spleen calculated as a ratio of the organ's weight to the body weight of the animal multiplied by 100.
as §2

[8] = Indomethacin intoxication, therapeutic: changes in body weight; details: Indomethacin 30 mg/kg, Before Indomethacin = 100
Description: as §2
Some loss of weight of the intact animals could be contributed to the 18-hr fasting. […]

[9] = Indomethacin-induced ulcer model, preventive: weight of organs
Description: as §5, §4

[10] = Indomethacin-induced ulcer model, therapeutic: survival; details: Indomethacin 30 mg/kg
Description: as §2
On the 5th day, only 7 out of 10 animals in the control group survived, while in the group receiving VGT 9 out of 10 survived.

[11] = test system: alkaline phosphatase (AP); experiment: Water-immersion stress model: alkaline phosphatase activity in blood serum
Description: as §1

malondialdehyde (MDA) [12] = experiment: Indomethacin-induced ulcer model, preventive: malondialdehyde in blood serum
Description: as §3, §4

[13] = test system: alkaline phosphatase (AP); experiment: Indomethacin-induced ulcer model, preventive: alkaline phosphatase activity in blood serum
Description: as §1, §4

[14] = test system: superoxide dismutase (SODM); experiment: Indomethacin-induced ulcer model, therapeutic: superoxide dismutase activity in blood serum; details: treatment 5 days after Indomethacin
Description: as §3, §2

[15] = Water-immersion stress model: weight of organs
Description: as §5

[16] = test system: Alanine aminotransferase (ALT); experiment: Water-immersion stress model: alanine aminotransferase activity in blood serum
Description: as §1

[17] = test system: alkaline phosphatase (AP); experiment: Indomethacin-induced ulcer model, therapeutic: alkaline phosphatase activity in blood serum; details: treatment 5 days after Indomethacin
Description: as §1, §2

[18] = blood serum, 0.1 mkg/kg + Indomethacin 20 mg/kg, preventive
[19] = blood serum, 10 mkg/kg + Indomethacin 20 mg/kg, preventive
[20] = preventive administration, indomethacin 20 mg/kg
[21] = 0.1 mkg/kg + Indomethacin 20 mg/kg
[22] = 10 mkg/kg + Indomethacin 20 mg/kg
[23] = 200 mg/kg + Indomethacin 20 mg/kg

Substance: N-isovaleroyl-L-glutamyl-L-tryptophan [VGT preparation]
- ALT ([1]; 0.1 mkg/kg): 0.75 ± 0.09 mM/h*L
- ALT ([1]; 10.0 mkg/kg): 0.66 ± 0.11 mM/h*L
- SODM ([2]; 0.1 mkg/kg + stress): 2.20 ± 0.09 con. units/ml
- SODM ([2]; 10 mkg/kg + stress): 2.35 ± 0.11 con. units/ml
- MDA (malondialdehyde (MDA) [3]; blood serum, 0.1 mkg/kg): 0.169 ± 0.012 OD532
- MDA (malondialdehyde (MDA) [3]; blood serum, 10.0 mkg/kg): 0.217 ± 0.030 OD532
- reduced MDA content (malondialdehyde (MDA) [3]; small dose, treatment after Indomethacin): 70%
- SODM [4, 18]: 2.50 ± 0.05 con. units/ml
- SODM [4, 19]: 2.58 ± 0.14 con. units/ml
- increased the activity of SODM compared to control animals [4, 20]: 1.6 times
- MDA (malondialdehyde (MDA) [5]; 0.1 mkg/kg + stress): 0.130 ± 0.019 OD532
- MDA (malondialdehyde (MDA) [5]; 10 mkg/kg + stress): 0.128 ± 0.020 OD532
- ALT [6, 21]: 1.04 ± 0.06 mM/hr-L
- ALT [6, 22]: 1.08 ± 0.06 mM/hr-L
- Adrenal Glands Rel. wt. ([7]; 0.1 mkg/kg): 0.019 ± 0.002%
- Adrenal Glands Wt. ([7]; 0.1 mkg/kg): 41.8 ± 5.1
- Liver Rel. wt. ([7]; 0.1 mkg/kg): 3.27 ±0.18%
- Liver Wt. ([7]; 0.1 mkg/kg): 7.062 ± 0.411 g
- Spleen Rel. wt. ([7]; 0.1 mkg/kg): 0.48 ± 0.03%
- Spleen Wt. ([7]; 0.1 mkg/kg): 1.061 ± 0.085 g
- Thymus Rel. wt. ([7]; 0.1 mkg/kg): 0.081 ± 0.007%
- Thymus Wt. ([7]; 0.1 mkg/kg): 0.173 ± 0.018 g
- Adrenal Glands Rel. wt. ([7]; 10.0 mkg/kg): 0.022 ± 0.002%
- Adrenal Glands Wt. ([7]; 10.0 mkg/kg): 48.3 ± 2.2
- Liver Rel. wt. ([7]; 10.0 mkg/kg): 3.76 ± 0.020 %
- Liver Wt. ([7]; 10.0 mkg/kg): 8.310 ± 0.426 g
- Spleen Rel. wt. ([7]; 10.0 mkg/kg): 0.56 ± 0.05%
- Spleen Wt. ([7]; 10.0 mkg/kg): 1.233 ± 0.104 g
- Thymus Rel. wt. ([7]; 10.0 mkg/kg): 0.078 ± 0.008%
- Thymus Wt. ([7]; 10.0 mkg/kg): 0.179 ± 0.032 g
- Body weight In 5 days ([8]; 0.1 mkg/kg): 84.4 ± 2.3
- Body weight In 5 days ([8]; 10.0 mkg/kg): 84.1 ± 3.0
- Adrenal Glands Rel. wt. [9, 21]: 0.017 ± 0.001%
- Adrenal Glands Wt. [9, 21]: 37.1 ± 1.3 mg
- Liver Rel. wt. [9, 21]: 2.99 ± 0.060%
- Liver Wt. [9, 21]: 6.549 ± 0.282 g
- Spleen Rel. wt. [9, 21]: 0.433 ± 0.041%
- Spleen Wt. [9, 21]: 0.912 ± 0.044 g
- Thymus Rel. wt. [9, 21]: 0.124 ± 0.007 %
- Thymus Wt. [9, 21]: 0.277 ± 0.018 g
- Adrenal Glands Rel. wt. [9, 22]: 0.018 ± 0.001%
- Adrenal Glands Wt. [9, 22]: 38.5 ± 1.4 mg
- Liver Rel. wt. [9, 22]: 3.053 ± 0.065%
- Liver Wt. [9, 22]: 6.770 ± 0.335 g
- Spleen Rel. wt. [9, 22]: 0.434 ± 0.018%
- Spleen Wt. [9, 22]: 0.926 ± 0.060 g
- Thymus Rel. wt. [9, 22]: 0.133 ± 0.009%
- Thymus Wt. [9, 22]: 0.320 ± 0.030 g
- animals survived ([10]; 0.1 mkg/kg): 9 out of 10
- animals survived ([10]; on the 5th day, control 7 out of 10): 9 out of 10
- AP ([11]; 0.1 mkg/kg + stress): 1100 ± 54 nM/s-L
- AP ([11]; 10.0 mkg/kg + stress): 1123 ± 55 nM/s-L
- MDA (malondialdehyde (MDA) [12]; [18]): 0.124 ± 0.009 OD532
- MDA (malondialdehyde (MDA) [12]; [19]): 0.158 ± 0.030 OD532
- reduced the final LP-MDA product concentration compared to control animals (malondialdehyde (MDA) [12]; [20]): 14%
- AP [13, 21]: 1108 ± 91 nM/s-L
- AP [13, 22]: 1180 ± 91 nM/s-L
- SODM ([14]; 0.1 mkg/kg): 3.1 ± 0.11 conv. units/ml
- SODM ([14]; 10.0 mkg/kg): 3.06 ± 0.16 conv. units/ml
- Adrenal Glands Rel Wt. ([15]; 0.1 mkg/kg + stress): 0.017 ± 0.001 %
- Adrenal Glands Wt. ([15]; 0.1 mkg/kg + stress): 40.8 ± 1.1 mg
- Spleen Rel Wt. ([15]; 0.1 mkg/kg + stress): 0.37 ± 0.06 %
- Spleen Wt. ([15]; 0.1 mkg/kg + stress): 0.872 ± 0.066 g
- Thymus Rel Wt. ([15]; 0.1 mkg/kg + stress): 0.124 ± 0.010 %
- Thymus Wt. ([15]; 0.1 mkg/kg + stress): 0.307 ± 0.028 g
- reducing adrenal weight compared to that of the control animals ([15]; 0.1 mkg/kg + stress): 16 - 17%
- Adrenal Glands Rel Wt. ([15]; 10.0 mkg/kg + stress): 0.018 ± 0.001 %
- Adrenal Glands Wt. ([15]; 10.0 mkg/kg + stress): 45.2 ± 2.2 mg
- Spleen Rel Wt. ([15]; 10.0 mkg/kg + stress): 0.41 ± 0.03%
- Spleen Wt. ([15]; 10.0 mkg/kg + stress): 0.977 ± 0.082 g
- Thymus Rel Wt. ([15]; 10.0 mkg/kg + stress): 0.154 ± 0.008%
- Thymus Wt. ([15]; 10.0 mkg/kg + stress): 0.350 ± 0.022 g
- lowered the relative weight of the spleen compared to that of the intact animals ([15]; small doses + stress): 24%
- ALT ([16]; 0.1 mkg/kg + stress): 1.55 ± 0.15 mM/hr-L
- ALT ([16]; 10.0 mkg/kg + stress): 1.78 ± 0.08 mM/hr-L
- AP ([17]; 0.1 mkg/kg): 1357 ± 58 nM/c*L
- AP ([17]; 10.0 mkg/kg): 1368 ± 148 nM/c*L

Substance: aluminum complex of beta-D-fructofuranosyl-alpha-D-glucopyranoside octakis (hydrosulfate) [Sucralfate]
- ALT ([1]; 200 mg/kg): 0.69 ± 0.05 mM/h*L
- SODM ([2]; 200 mg/kg + stress): 2.32 ± 0.11 con. units/ml
- MDA (malondialdehyde (MDA) [3]; 200 mg/kg): 0.155 ± 0.037 OD532
- SODM [4, 23]: 2.68 ± 0.14 con. units/ml
- MDA (malondialdehyde (MDA) [5]; 200 mg/kg + stress): 0.147 ± 0.007 OD532
- ALT [6, 23]: 1.05 ± 0.05 mM/hr-L
- Adrenal Glands Rel. wt. ([7]; 200 mg/kg): 0.023± 0.002%
- Adrenal Glands Wt. ([7]; 200 mg/kg): 50.1 ± 3.2
- Liver Rel. wt. ([7]; 200 mg/kg): 3.23 ± 0.13%
- Liver Wt. ([7]; 200 mg/kg): 7.158 ± 0.330 g
- Spleen Rel. wt. ([7]; 200 mg/kg): 0.57 ± 0.04%
- Spleen Wt. ([7]; 200 mg/kg): 1.260 ± 0.083 g
- Thymus Rel. wt. ([7]; 200 mg/kg): 0.070 ± 0.005 %
- Thymus Wt. ([7]; 200 mg/kg): 0.155 ± 0.011 g
- Body weight In 5 days ([8]; 200 mg/kg): 86.6 ± 2.5
- Adrenal Glands Rel. wt. [9, 23]: 0.017 ± 0.001%
- Liver Rel. wt. [9, 23]: 3.259± 0.049%
- Liver Wt. [9, 23]: 7.702 ± 0.224 g
- Spleen Rel. wt. [9, 23]: 0.490 ± 0.020%
- Spleen Wt. [9, 23]: 1.070 ± 0.041 g
- Thymus Rel. wt. [9, 23]: 0.130 ± 0.009%
- Thymus Wt. [9, 23]: 0.306 ± 0.023 g
- AP ([11]; 200 mg/kg + stress): 1113 ± 77 nM/s-L
- MDA (malondialdehyde (MDA) [12]; [23]): 0.134 ± 0.024 OD532
- AP [13, 23]: 931 ± 108 nM/s-L
- SODM ([14]; 200 mg/kg): 2.66 ± 0.11 conv. units/ml
- Adrenal Glands Rel Wt. ([15]; 200 mg/kg + stress): 0.017 ± 0.001 %
- Adrenal Glands Wt. ([15]; 200 mg/kg + stress): 41.6 ± 2.7 mg
- Spleen Rel Wt. ([15]; 200 mg/kg + stress): 0.40 ± 0.02%
- Spleen Wt. ([15]; 200 mg/kg + stress): 0.974 ± 0.057 g
- Thymus Rel Wt. ([15]; 200 mg/kg + stress): 0.140 ± 0.007%
- Thymus Wt. ([15]; 200 mg/kg + stress): 0.327 ± 0.016 g
- ALT ([16]; 200 mg/kg + stress): 1.57 ± 0.06 mM/hr-L
- AP ([17]; 200 mg/kg): 1260 ± 104 nM/c*L
